Measurements published in ChEMBL document CHEMBL6092123, “Configuration of two cysteine residues in a ring within a stapled Bim peptide affects the secondary structure and apoptotic activity” (Bioorg Med Chem Lett, 2024).

Legend:
[1] = Drug uptake in human HeLa cells assessed as red signals at 10 uM incubated for 3 hrs by fluorescence microscopy; format: ADME, cell-based
[2] = tested on: HeLa; assay: Induction of apoptosis in human HeLa cells assessed as green signal at 10 uM relative to control; format: functional
[3] = Proteolytic stability assessed as proteinase K (unknown origin)-mediated drug degradation measured for 15 mins by Tricine-SDS-PAGE analysis; format: ADME; conditions: read-out: Drug degradation

| Compound | Drug uptake [1] | Activity [2] | metabolised at 0.25 h [3] |
| --- | --- | --- | --- |
| CC[C@H](C)[C@@H]1NC(=O)[C@@H](NC(=O)[C@H](CCCNC(=N)N)NC(=O)[C@H](CC(C)C)NC(=O)[C@H](CCC(=O)O)NC(=O)[C@H](CCC(N)=O)NC(=O)[C@H](C)NC(=O)[C@@H](NC(=O)[C@H](Cc2c[nH]c3ccccc23)NC(=O)[C@@H](NC(=O)[C@H](CCC(=O)O)NC(=O)[C@H](CCCNC(=N)N)NC(=O)[C@H](CCCNC(=N)N)NC(=O)[C@H](CCCNC(=N)N)NC(=O)[C@H](CCC(N)=O)NC(=O)[C@H](CCCNC(=N)N)NC(=O)[C@H](CCCNC(=N)N)NC(=O)[C@H](CCCCN)NC(=O)[C@H](CCCCN)NC(=O)[C@@H](N)CCCNC(=N)N)[C@@H](C)CC)[C@@H](C)CC)CSCc2ccccc2CSC[C@@H](C(=O)N[C@@H](Cc2ccccc2)C(=O)N[C@@H](CC(N)=O)C(=O)N[C@@H](C)C(=O)N[C@@H](Cc2ccc(O)cc2)C(=O)N[C@@H](Cc2ccc(O)cc2)C(=O)N[C@@H](C)C(=O)N[C@@H](CCCNC(=N)N)C(=O)O)NC(=O)[C@H](CC(=O)O)NC(=O)CNC1=O | Active | 94% | 68% |
| CC[C@H](C)[C@@H]1NC(=O)[C@@H](NC(=O)[C@H](CCCNC(=N)N)NC(=O)[C@H](CC(C)C)NC(=O)[C@H](CCC(=O)O)NC(=O)[C@H](CCC(N)=O)NC(=O)[C@H](C)NC(=O)[C@@H](NC(=O)[C@H](Cc2c[nH]c3ccccc23)NC(=O)[C@@H](NC(=O)[C@@H](N)CCC(=O)O)[C@@H](C)CC)[C@@H](C)CC)CSCc2ccccc2CSC[C@@H](C(=O)N[C@@H](Cc2ccccc2)C(=O)N[C@@H](CC(N)=O)C(=O)N[C@@H](C)C(=O)N[C@@H](Cc2ccc(O)cc2)C(=O)N[C@@H](Cc2ccc(O)cc2)C(=O)N[C@@H](C)C(=O)N[C@@H](CCCNC(=N)N)C(=O)O)NC(=O)[C@H](CC(=O)O)NC(=O)CNC1=O | Not_active | – | – |
| CC[C@H](C)[C@H](NC(=O)[C@H](Cc1c[nH]c2ccccc12)NC(=O)[C@@H](NC(=O)[C@H](CCC(=O)O)NC(=O)[C@H](CCCNC(=N)N)NC(=O)[C@H](CCCNC(=N)N)NC(=O)[C@H](CCCNC(=N)N)NC(=O)[C@H](CCC(N)=O)NC(=O)[C@H](CCCNC(=N)N)NC(=O)[C@H](CCCNC(=N)N)NC(=O)[C@H](CCCCN)NC(=O)[C@H](CCCCN)NC(=O)[C@@H](N)CCCNC(=N)N)[C@@H](C)CC)C(=O)N[C@@H](C)C(=O)N[C@@H](CCC(N)=O)C(=O)N[C@@H](CCC(=O)O)C(=O)N[C@@H](CC(C)C)C(=O)N[C@@H](CCCNC(=N)N)C(=O)N[C@@H]1CSCc2ccccc2CSC[C@H](C(=O)N[C@@H](Cc2ccccc2)C(=O)N[C@@H](CC(N)=O)C(=O)N[C@@H](C)C(=O)N[C@@H](Cc2ccc(O)cc2)C(=O)N[C@@H](Cc2ccc(O)cc2)C(=O)N[C@@H](C)C(=O)N[C@@H](CCCNC(=N)N)C(=O)O)NC(=O)[C@H](CC(=O)O)NC(=O)CNC(=O)[C@H]([C@@H](C)CC)NC1=O | – | 9.3% | – |
| CC[C@H](C)[C@H](NC(=O)[C@H](Cc1c[nH]c2ccccc12)NC(=O)[C@@H](NC(=O)[C@H](CCC(=O)O)NC(=O)[C@H](CCCNC(=N)N)NC(=O)[C@H](CCCNC(=N)N)NC(=O)[C@H](CCCNC(=N)N)NC(=O)[C@H](CCC(N)=O)NC(=O)[C@H](CCCNC(=N)N)NC(=O)[C@H](CCCNC(=N)N)NC(=O)[C@H](CCCCN)NC(=O)[C@H](CCCCN)NC(=O)[C@@H](N)CCCNC(=N)N)[C@@H](C)CC)C(=O)N[C@@H](C)C(=O)N[C@@H](CCC(N)=O)C(=O)N[C@@H](CCC(=O)O)C(=O)N[C@@H](CC(C)C)C(=O)N[C@@H](CCCNC(=N)N)C(=O)N[C@@H]1CSCc2ccccc2CSC[C@@H](C(=O)N[C@@H](Cc2ccccc2)C(=O)N[C@@H](CC(N)=O)C(=O)N[C@@H](C)C(=O)N[C@@H](Cc2ccc(O)cc2)C(=O)N[C@@H](Cc2ccc(O)cc2)C(=O)N[C@@H](C)C(=O)N[C@@H](CCCNC(=N)N)C(=O)O)NC(=O)[C@H](CC(=O)O)NC(=O)CNC(=O)[C@H]([C@@H](C)CC)NC1=O | – | 14% | – |
| CC[C@H](C)[C@@H]1NC(=O)[C@@H](NC(=O)[C@H](CCCNC(=N)N)NC(=O)[C@H](CC(C)C)NC(=O)[C@H](CCC(=O)O)NC(=O)[C@H](CCC(N)=O)NC(=O)[C@H](C)NC(=O)[C@@H](NC(=O)[C@H](Cc2c[nH]c3ccccc23)NC(=O)[C@@H](NC(=O)[C@@H](N)CCC(=O)O)[C@@H](C)CC)[C@@H](C)CC)CSCc2ccccc2CSC[C@H](C(=O)N[C@@H](Cc2ccccc2)C(=O)N[C@@H](CC(N)=O)C(=O)N[C@@H](C)C(=O)N[C@@H](Cc2ccc(O)cc2)C(=O)N[C@@H](Cc2ccc(O)cc2)C(=O)N[C@@H](C)C(=O)N[C@@H](CCCNC(=N)N)C(=O)O)NC(=O)[C@H](CC(=O)O)NC(=O)CNC1=O | – | 52% | – |
| H-RKKRRQRRREIWIAQELRRIGDEFNAYYAR-OH | Active | 37% | 95% |
